Earlier results, collected in patent US12324811B2, “Intranasal formulation” (CIPLA LIMITED, priority 2018, dated 2025).

Legend:
[1] = active metabolite
[2] = oral administration
[3] = intranasally administered, children and adults

Compound	contribution to biological activity of midazolam [1]	drug reaching the bloodstream [2]	onset of action [3]
OCc1ncc2n1-c1ccc(Cl)cc1C(c1ccccc1F)=NC2 [alpha1-hydroxymidazolam]	10%	–	–
Midazolam	–	50%	about 10 minutes
